This is an account of results in patent US20160074338A1, “FOOD COMPOSITION FOR PREVENTING OBESITY, PHARMACEUTICAL COMPOSITION FOR TREATING OBESITY, AND ANIMAL MEDICINE FOR TREATING OBESITY, CONTAINING GINGERNONE A” (SNU R&DB Foundation, priority 2011, published 2016).

What all share (assay type): cell-based
Data set [1] concerns FAS (fatty acid synthase). The experiment in a line: Western blotting of FAS protein expression in differentiating 3T3-L1 cells. As to conditions: MDI-differentiated 3T3-L1 cells; for FAS expression level: 40 μM, FIG. 5 comparison. On the procedure:
(§1) In Experimental Example 4, it was confirmed by Western blotting that gingerenone A affects important transcriptional factors, C/EBPα and PPARγ, and FAS protein expressed by a transcriptional factor thereof, expressed upon fat cell differentiation (B. L. Upham et al., Carcinogenesis. 18:37-42, 1997).
(§2) Post-confluent 3T3-L1 cells were cultured in DMEM supplemented with MDI, 10% FBS and 10 ml/L of antibiotic-antimycotic agent. In this media, we additionally treated with or without gingerenone A (10, 20 and 40 μM) for 2 days. For the next 2 to 4 days, the cells were further cultured. Here, the culture media was prepared by adding gingerenone A at concentrations of 10, 20 and 40 μM to DMEM media comprising insulin, 10% FBS and 1% antibiotic-antimycotic agent. For the next 4 to 6 days, the cells were further cultured in media comprising 10% FBS, 1% antibiotic-antimycotic agent and gingerenone A. Here, gingerenone A was added at concentrations of 10, 20 and 40 μM to the DMEM media. To extract protein from the cultured cells, after washing two times with cold PBS (phosphate buffered saline), the cells were lysed with a protein extraction solution. The protein extraction solution was RIPA buffer (50 mM, Tris pH 8.0, 150 mM NaCl, 1% NP-40, 5 mM EDTA and 1 mM PMSF) comprising 0.5% protease inhibitor (SIGMA-ALDRICH) and 0.5% phosphatase inhibitor (250 mM sodium fluoride, 5 mM sodium orthovanadate, 50 mM sodium pyrophosphate and 50 mM glycerophosphate). The cell lysates were centrifuged at 4° C. for 20 minutes at a rate of 12000 rpm. Supernatant formed by centrifugation was transferred to new 1.5 mL Eppendorf tubes. The protein content of the supernatants was determined using a DC assay kit (Bio-Rad Corp., Richmond, Calif., USA). The DC assay kit uses BSA (bovine serum albumin) as a standard solution. After mixing 20 to 50 μg of the protein with a sample buffer comprising bromophenol blue and denaturing the protein at 100° C. for 5 minutes, the denatured proteins were separated on a 12% SDS-polyacrylamide gel. […]

Data set [2] relates to C/EBPα. The experiment in a line: Western blotting of C/EBPα protein expression in differentiating 3T3-L1 cells. Conditions: MDI-differentiated 3T3-L1 cells; for C/EBPα expression level: 40 μM, FIG. 5 comparison. On the procedure:
as §1, §2
On the technique in general: In western blotting, separated proteins are transferred to a membrane and probed.

The test system of data set [3] is PPARγ. The experiment in a line: Western blotting of PPARγ protein expression in differentiating 3T3-L1 cells. As to conditions: MDI-differentiated 3T3-L1 cells. The procedure:
as §1
Post-confluent 3T3-L1 cells were cultured in DMEM supplemented with MDI, 10% FBS and 10 ml/L of antibiotic-antimycotic agent. In this media, we additionally treated with or without gingerenone A (10, 20 and 40 μM) for 2 days. For the next 2 to 4 days, the cells were further cultured. Here, the culture media was prepared by adding gingerenone A at concentrations of 10, 20 and 40 μM to DMEM media comprising insulin, 10% FBS and 1% antibiotic-antimycotic agent. For the next 4 to 6 days, the cells were further cultured in media comprising 10% FBS, 1% antibiotic-antimycotic agent and gingerenone A. Here, gingerenone A was added at concentrations of 10, 20 and 40 μM to the DMEM media. To extract protein from the cultured cells, after washing two times with cold PBS (phosphate buffered saline), the cells were lysed with a protein extraction solution. […] The protein content of the supernatants was determined using a DC assay kit (Bio-Rad Corp., Richmond, Calif., USA). […]

Data set [4] concerns 3T3-L1 cells. Kind of data set: MTT analysis of viability of 3T3-L1 cells. On the procedure: In Experimental Example 2, in order to measure the toxicity of 3T3-L1 cells in the presence of varying concentrations of gingerenone A, MTT3-(4,5-Dimethylthiazol-2-yl)-2,5diphenyltetrazolium bromide) analysis was conducted.
First, after plating 3T3-L1 cells into 96 well plates, the cells were cultured until the 3T3-L1 cells became confluent. Thereafter, the 3T3-L1 cells were treated with gingerenone A at concentrations of 10, 20 and 40 μM. After culturing for 24 and 48 hours, MTT was added to the cultured cells to a concentration of 0.5 mg/ml. The treated cells were cultured for 4 hours at 37° C. in a 5% CO2 incubator. Thereafter, the media was removed and 200 μl of DMSO (dimethylsulfoxide) was added to measure absorbance at a wavelength of 570 nm using an absorbance reader (Versa Max, Molecular Device, California, USA). Cell viability was determined as a percentage with respect to a control treated with only MDI (0.5 mM of isobutyl-methylxanthine, 1 μM of dexamethasone and 10 μg/ml of insulin).

For data set [5], the system named is 3T3-L1 cells. Kind of data set: Oil red O staining of fat accumulation in MDI-differentiated 3T3-L1 cells. As to conditions: 10, 20 and 40 μM, 6 days, dependent on concentration. The procedure: In Experimental Example 3, to analyze the suppressive effects of gingerenone A on fat accumulation, oil red 0 staining was performed after inducing differentiation of the pre-adipocytes (K. Tobe et al., FEBS Lett, 215(2):345-9, 1987).
The 3T3-L1 cells (ATCC, Gaithersburg, Md.), representing pre-adipocytes, were plated into 24-well plates. The plated 3T3-L1 cell line was cultured in DMEM (Dulbecco-modified Eagle medium, WELGENE) with 10% FBS (fetal bovine serum) and 10 ml/L of antibiotic-antimycotic agent at 37° C. in a 5% CO2 incubator (MCO-15AC, SANYO E&E, Europe) until the cells reached 100% confluence.
When the 3T3-L1 cells reached 100% confluence, the cells were further cultured for 2 days in DMEM medium, in which MDI was added, with 10 ml/L of antibiotic-antimycotic agent and 10% fetal bovine serum (FBS). The media was replaced with DMEM containing 10 ml/L of insulin, 10% FBS and 10 ml/L of antibiotic-antimycotic agent for another 2 days. Thereafter, the media was changed to DMEM medium only comprising 10 ml/L of antibiotic-antimycotic agent and 10% FBS. […]
When 3T3-L1 cells were differentiated in the presence of MDI, gingerenone A was added at concentrations of 10, 20 and 40 μM to the cell culture media every third day from the day of MDI addition. […] The concentration was measured at a wavelength of 515 nm using an absorbance reader.

Regarding `CCCCC[C@H](O)CC(=O)CCc1ccc(O)c(OC)c1` [gingerol, reference compound], in data set [1], the FAS expression level result was “slightly reduced”. Also, the C/EBPα expression level entry in data set [2] was “slightly reduced”.

On to `COc1cc(CC/C=C/C(=O)CCc2ccc(O)c(OC)c2)ccc1O` [gingerenone A], for which, in data set [3] (40 μM, FIG. 5 comparison), the PPARγ expression level result was “considerably reduced”. In data set [3] (10, 20 and 40 μM, FIG. 4), the “PPARγ protein expression level” value is “reduced”. For the same molecule, in data set [1], the FAS expression level entry was “considerably reduced”. For the same molecule, the “FAS protein expression level” value in data set [1] (10, 20 and 40 μM, FIG. 4) is “reduced”. Moreover, the “cytotoxicity (viability of 3T3-L1 cells)” value in data set [4] (40 μM, 24 and 48 hours after treatment) was “not observed”. Moreover, the “cytotoxicity (MTT analysis)” value in data set [4] (3T3-L1 pre-adipocytes treated with 10, 20 and 40 μM) is given as “not observed”. For the same molecule, in data set [2], the C/EBPα expression level result is listed as “considerably reduced”. In addition, the “C/EBPα protein expression level” value in data set [2] (10, 20 and 40 μM, FIG. 4) is on record as “reduced”. Further, in data set [5], the “cellular fat content (oil red O staining)” value is “decreased”.
